# US5254584A, “N-acetonylbenzamides and their use as fungicides” (Rohm and Haas Company, priority 1992, dated 1993)
# Columns and labels:
# Cercospora arachidicola = assay: Peanut Cercospora (PC); settings: in vivo
# Venturia inaequalis = assay: Fungitoxicity assay against Venturia inaequalis (in vitro, microtiter MIC); type: cell-based; settings: 168 h, minimum inhibitory concentration, 7 days at 25° C.
# Description: The compounds of Examples 1-20 were tested in vitro for fungicidal activity and phytotoxicity. A. The compounds were tested in vitro for fungicidal activity against Pythium ultimum, Botrytis cinerea and Venturia inaequalis. Fungitoxicity assay against Venturia inaequalis: Test compounds were dissolved in dimethylsulfoxide at 1 milligram per milliliter (mg/ml), and 50 ul added to 950 ul of yeast extract-dextrose medium (YED, 0.4% yeast extract, 2% dextrose) to give 50 part per million (ppm) solutions. Minimum inhibitory concentration (MIC) values were determined using a microtiter assay with twofold serial dilutions of the prepared 50 ppm solutions (100 ul) in YED medium. Inoculum consisted of a spore suspension of V. inaequalis in YED medium at 2.5×10^5 spores per ml. […] Results of the testing for fungicidal activity against the above named fungi are set forth below in Table 3 as Pythium EC50 (ppm), Botrytis EC50 (ppm) and Venturia MIC (ppm), respectively.
# [1] = system: Erysiphe graminis (f. sp. tritici); assay: Wheat Powdery Mildew (WPM); type: in vivo; settings: 300 g/Ha; 8 to 10 days after inoculation; Pennol wheat
# Description: Wheat Powdery Mildew (WPM) Erysiphe graminis (f. sp. tritici) was cultured on Pennol wheat seedlings in a controlled temperature room at 65° F. to 75° F. Mildew spores were shaken from the culture plants onto Pennol wheat seedlings which had been sprayed previously with the fungicide compound. The inoculated seedlings were kept in a controlled temperature room at 65° F. to 75° F. and subirrigated. […] The fungicidal activity of compound of Example 12 against the above discussed phytopathogenic fungi is set forth in Table 5 as percent disease control at an application rate of 300 g/Ha.
# Phytophthora capsici = assay: microbe, parasite or virus in culture; type: cell-based; settings: 72 h, 3 days at room temperature, read-out: PHY percent inhibition of fungal growth
# Piricularia oryzae [2] = assay: organism not typed; type: cell-based; settings: 72 h, read-out: PIR percent inhibition of fungal growth
# bean plants = assay: In vivo phytotoxic activity, foliar spray, bean; design: key: +: indicating presence of a plant growth regulatory effect as compared to a control to which a solvent mixture (acetone/water/methanol) lacking the test compound was applied; 0: A zero indicates no apparent effect; settings: foliar spray 2200 g/Ha, seven days after application
# Description: (§1) The compounds of Examples 1 and 12 were tested in vivo for phytotoxic activity by applying the compounds to the foliage of cucumber, tomato, bean, lettuce and strawberry plants as a spray at a rate of 2200 g/Ha. The plants were evaluated seven days after spray application of the compounds.
# (§2) Phototoxicity scores are set forth below in Table 6. The phytotoxicity scores use a symbol, "+", indicating presence of a plant growth regulatory effect as compared to a control to which a solvent mixture (acetone/water/methanol) lacking the test compound was applied. A zero indicates no apparent effect. Each score is a composite representing the mode value for three replicate plants.
# [3] = system: Colletotrichum lagenarium; assay: microbe, parasite or virus in culture; type: cell-based; settings: Colletotrichum orbiculare, 72 h, 3 days at room temperature, read-out: COL percent inhibition of fungal growth
# Fusarium roseum = assay: microbe, parasite or virus in culture; type: cell-based; settings: Fusarium sambucinum, 72 h, read-out: FUS percent inhibition of fungal growth
# Botrytis cinerea = assay: microbe, parasite or virus in culture; type: cell-based; settings: 72 h, 3 days at room temperature, read-out: BOC percent inhibition of fungal growth
# [4] = system: Pseudoperonospora cubensis; assay: Cucumber Downy Mildew (CDM); settings: in vivo
# Pythium ultimum [5] = assay: Fungitoxicity assay against Pythium ultimum (in vitro, mycelial dry weight); type: cell-based; settings: Globisporangium ultimum, 48 hours at 25° C., read-out: Pythium EC50
# Description: The compounds of Examples 1-20 were tested in vitro for fungicidal activity and phytotoxicity. A. The compounds were tested in vitro for fungicidal activity against Pythium ultimum, Botrytis cinerea and Venturia inaequalis. Fungitoxicity assay against Pythium ultimum: A dilution series of test compound was prepared in dimethylsulfoxide, and 0.1 milliliter (ml) of each dilution was added to 19.9 ml of a liquid asparagine-sucrose broth ([…]. and Katznelson, K., 1971, Can. J. […] Each plate was inoculated with a mycelial plug, 7 millimeters (mm) in diameter, taken from the growing edge of a culture of Pythium ultimum grown on potato dextrose agar. Two replicate plates were used for each treatment. The increase in mycelial dry weight was determined after growth for 48 hours at 25° C. with shaking on a gyrotary shaker at 60 revolutions per minute (rpm). EC50 values were calculated from dose response curves. As used herein, the terminology "EC50" means the concentration of test compound required to inhibit growth by 50% as compared to a control lacking the test compound. Results of the testing for fungicidal activity against the above named fungi are set forth below in Table 3 as Pythium EC50 (ppm), Botrytis EC50 (ppm) and Venturia MIC (ppm), respectively.
# cucumber plants = assay: In vivo phytotoxic activity, foliar spray, cucumber; design: key: +: indicating presence of a plant growth regulatory effect as compared to a control to which a solvent mixture (acetone/water/methanol) lacking the test compound was applied; 0: A zero indicates no apparent effect; settings: foliar spray 2200 g/Ha, seven days after application
# Description: as §1, §2
# Pythium ultimum [6] = assay: microbe, parasite or virus in culture; type: cell-based; settings: Globisporangium ultimum, 72 h, 3 days at room temperature, read-out: PYU percent inhibition of fungal growth
# [7] = system: Pseudocercosporella herpotrichoides; assay: microbe, parasite or virus in culture; type: cell-based; settings: Oculimacula yallundae, 72 h, 3 days at room temperature, read-out: PSH percent inhibition of fungal growth
# Piricularia oryzae [8] = type: in vivo; settings: 300 g/Ha; seven to eight days after inoculation; Nato rice
# Plasmopara viticola = assay: Downy Mildew of Grapes--Curative (GDC); settings: in vivo
# lettuce plants = assay: In vivo phytotoxic activity, foliar spray, lettuce; design: key: +: indicating presence of a plant growth regulatory effect as compared to a control to which a solvent mixture (acetone/water/methanol) lacking the test compound was applied; 0: A zero indicates no apparent effect; settings: foliar spray 2200 g/Ha, seven days after application
# Description: as §1, §2
# strawberry plants = assay: In vivo phytotoxic activity, foliar spray, strawberry; design: key: +: indicating presence of a plant growth regulatory effect as compared to a control to which a solvent mixture (acetone/water/methanol) lacking the test compound was applied; 0: A zero indicates no apparent effect; settings: foliar spray 2200 g/Ha, seven days after application
# Description: as §1, §2
smiles,measurement,setting,value
"CCC(C)(NC(=O)c1cc(C)cc(C=NOC)c1)C(=O)CCl (stereo not drawn) [Example 12, N-[3'-(1'-chloro-3'-methyl-2'-oxopentan)]-3-methoxyiminomethyl-5-methylbenzamide]",PC percent disease control,Cercospora arachidicola,80%
same,MIC,Venturia inaequalis,0.1 µg/mL
same,WPM percent disease control,[1],75%
same,inhibition at 25 ppm,Phytophthora capsici,100%
same,inhibition at 25 ppm,Piricularia oryzae [2],100%
same,"phytotoxicity score, Bean",bean plants,0
same,inhibition at 25 ppm,[3],100%
same,inhibition at 25 ppm,Fusarium roseum,0%
same,inhibition at 25 ppm,Botrytis cinerea,100%
same,CDM percent disease control,[4],99%
same,IC50,Pythium ultimum [5],0.16 µg/mL
same,"phytotoxicity score, Cucumber",cucumber plants,0
same,inhibition at 25 ppm,Pythium ultimum [6],100%
same,inhibition at 25 ppm,[7],100%
same,RB percent disease control,Piricularia oryzae [8],75%
same,GDC percent disease control,Plasmopara viticola,50%
same,"phytotoxicity score, Lettuce",lettuce plants,0
same,"phytotoxicity score, Strawberry",strawberry plants,0
